Some test systems named below: DLD-1; DMS-114; DMS-273; HOP-18; LXFL 529; M19-MEL; RXF 631; SNB-78; XF498.
Holding throughout (assay): NCI anticancer screen, dose series, 48 h

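Dose response: 5 concentrations. Exposure: 48 h. Format: 96-well plates. Endpoint: linear interpolation; highest concentration if not reached. GI50: concentration for 50% inhibition of growth.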 Active and inactive are the calls of the source. No stated cut-off is given here; in the data, active = GI50 up to about 1.1 µM and inactive = higher.

Regarding `COc1ccc2[nH]c3c(C)c4c(c(C)c3c2c1)CN(C)CC4`, the GI50 was 22.6 µM (inactive) with DLD-1; 18.6 µM (inactive) in the test with DMS-114; 13 µM (inactive) in the test on DMS-273; 10.6 µM (inactive) in the test on HOP-18; 17 µM (inactive) with LXFL 529; 17.3 µM (inactive) in the test on M19-MEL. In addition, the GI50 with RXF 631 was 21.7 µM (inactive); in the test on SNB-78, 25.3 µM (inactive).

As for `O=c1[nH]c(Br)nc2c(Br)c[nH]c12`, the GI50 in the test with DLD-1, with DMS-114, with DMS-273, in the test on HOP-18, in the test on LXFL 529 and in the test on M19-MEL was > 100 µM (inactive) throughout. Also, the GI50 in the test on RXF 631, in the test on SNB-78 and in the test with XF498 was > 100 µM (inactive) in each case.

As for `Cc1nc(-n2nc(-c3ccccc3)cc2-c2ccccc2)sc1C(=O)CC(=O)C(=O)Nc1ccc(O)cc1`, the GI50 with DLD-1, in the test on DMS-114, in the test with DMS-273, in the test with HOP-18, with LXFL 529 and in the test on RXF 631 was > 100 µM (inactive) throughout. The GI50 with SNB-78 was > 100 µM (inactive).

As for `CCS(CC)(CC)CC1CCCC2=CCC(P(=O)(c3ccccc3)c3ccccc3)CC21` (stereo not given), the GI50 with DLD-1 is 11.2 µM (inactive); with DMS-114 it was 8.81 µM (inactive); with DMS-273, 9.08 µM (inactive); with HOP-18 it was 23.8 µM (inactive); in the test on LXFL 529 it was 9.64 µM (inactive); with M19-MEL, 17.9 µM (inactive). The GI50 in the test with RXF 631 is 13.6 µM (inactive); in the test on SNB-78, 15.4 µM (inactive); in the test on XF498, 5.81 µM (inactive).

In the case of `CC1(C)CC(=O)C=C(NC(=O)c2ccccc2)C1`, the GI50 with DLD-1, in the test on DMS-114, in the test on DMS-273, with LXFL 529, with M19-MEL and with RXF 631 was > 100 µM (inactive) in each case. For the same compound, the GI50 in the test with SNB-78 and with XF498 was > 100 µM (inactive) in each case.

Turning to `O=C1OC(c2ccccc2)=N/C1=C/NC(CO)C(=O)O` (stereo not given), the GI50 with DLD-1 is > 100 µM (inactive); with DMS-114 it was > 100 µM (inactive); in the test on DMS-273, > 100 µM (inactive); with HOP-18, 45.6 µM (inactive); with LXFL 529, > 100 µM (inactive); with M19-MEL, > 100 µM (inactive). Further, the GI50 in the test with RXF 631, with SNB-78 and in the test with XF498 was > 100 µM (inactive) in each case.

Turning to `Oc1ccc([Te]CCNCC[Te]c2ccc(O)cc2)cc1`, the GI50 in the test with DLD-1 was 23 µM (inactive); in the test with DMS-273 it was 18.2 µM (inactive); in the test on HOP-18 it was 26.4 µM (inactive); in the test with LXFL 529, 3.41 µM (inactive); in the test with M19-MEL it was 7.29 µM (inactive); in the test with RXF 631, 6.05 µM (inactive). Further, the GI50 in the test with SNB-78 is 22 µM (inactive); in the test with XF498, 5.11 µM (inactive).

Turning to `COc1ccc2[nH]c3c(c2c1)CCN(C)CC3`, the GI50 in the test with DLD-1 is > 100 µM (inactive); in the test with DMS-273, > 100 µM (inactive); in the test on HOP-18, > 100 µM (inactive); in the test with M19-MEL, 57.4 µM (inactive); in the test on RXF 631, > 100 µM (inactive); with SNB-78 it was > 100 µM (inactive). The GI50 in the test with XF498 is > 100 µM (inactive).

With `COc1ccc2cccc(C(=N)c3ccc(C)c4c3CCC4)c2c1`, the GI50 is 7.08 µM (inactive) in the test with DMS-114; 9.4 µM (inactive) in the test on DMS-273; 0.895 µM (active) in the test on HOP-18; 4.86 µM (inactive) with LXFL 529; 9.62 µM (inactive) in the test with M19-MEL; 1.37 µM (inactive) in the test with RXF 631.

Regarding `COc1ccc2c(=O)cc(-c3ccc(OC)c(OC)c3OC)oc2c1`, the GI50 with DLD-1 was 53.3 µM (inactive); in the test with DMS-114, 76.2 µM (inactive); with LXFL 529 it was 40.4 µM (inactive); in the test on M19-MEL, 67.9 µM (inactive); in the test with RXF 631 it was 97.3 µM (inactive); with XF498, 46.7 µM (inactive).

Turning to `Nc1nc(OCc2ccccc2)c2nc[nH]c2n1` [6-O-BENZYLGUANINE], the GI50 in the test on DLD-1 was 64.6 µM (inactive); in the test with DMS-114, 64 µM (inactive); with DMS-273, 93.1 µM (inactive); in the test with HOP-18, 87.3 µM (inactive); in the test on LXFL 529, 93.3 µM (inactive); in the test on M19-MEL, 198 µM (inactive). The GI50 is 69.7 µM (inactive) with RXF 631 and 79.8 µM (inactive) in the test on SNB-78.

The record behind these values is ChEMBL document CHEMBL1201862, “PubChem BioAssay data set” (2004).
